Positions of bridges follow the written chain, without caps; N, C: chain ends. Non-standard residues stand in square brackets, D forms with d. Residues, ends and D or L forms follow the SMILES beside them. ξ: configuration not given here. *: point of attachment. Phe(4-COOH) = N[C@@H](Cc1ccc(C(=O)O)cc1)C(=O)O; Bip = N[C@@H](Cc1ccc(-c2ccccc2)cc1)C(=O)O; Phe(3-Me) = Cc1cccc(C[C@H](N)C(=O)O)c1; NMeF = CN[C@@H](Cc1ccccc1)C(=O)O; 4Pal = N[C@@H](Cc1ccncc1)C(=O)O; Cha = N[C@@H](CC1CCCCC1)C(=O)O; Carboxymethyl = O=C(O)C*; Orn = NCCC[C@H](N)C(=O)O; Dab = NCC[C@H](N)C(=O)O; Dap = NC[C@H](N)C(=O)O; ξV = CC(C)C(N)C(=O)O
Target: T1, human PD-1 (Jurkat-PD-1 cells) / PE-labeled human PD-L1-Ig (Homo sapiens, UniProt Q15116)
T1 construct: expressed in transfected cells; host or cells: Jurkat cell line over-expressing human PD-1
Assay: Jurkat-PD-1 Cell Binding High-Content Screening Assay (CBA); Jurkat hPD1-PDL1 assay
Details: Jurkat cell line over-expressing human PD-1; PE-labeled PD-L1-Ig 20 nM final; compound incubated 2 hours at 37° C.; read-out: Jurkat HPD1-PDL1 IC50
Outline: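 Compound was added to Jurkat-PD-1 cells in DMEM plus 10% fetal calf serum and incubated 2 hours at 37° C. Binding of phycoerythrin-conjugated PD-L1-Ig (20 nM final) to the cells was imaged.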

T1 sequence (Q15116 25-288): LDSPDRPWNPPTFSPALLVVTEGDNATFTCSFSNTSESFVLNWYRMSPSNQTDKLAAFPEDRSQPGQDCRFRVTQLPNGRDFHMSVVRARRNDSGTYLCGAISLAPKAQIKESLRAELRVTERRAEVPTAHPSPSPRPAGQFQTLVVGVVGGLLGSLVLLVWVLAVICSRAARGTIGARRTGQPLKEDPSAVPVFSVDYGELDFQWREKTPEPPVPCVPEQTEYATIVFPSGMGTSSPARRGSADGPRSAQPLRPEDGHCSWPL

SMILES | IC50
CC(C)[C@@H]1NC(=O)[C@H](Cc2c[nH]c3ccccc23)NC(=O)[C@H](CC(=O)O)NC(=O)[C@H](Cc2ccc(C(=O)O)cc2)NC(=O)[C@H](Cc2ccncc2)NC(=O)CSC[C@@H](C(=O)N[C@@H](C)C(N)=O)NC(=O)[C@H]([C@@H](C)O)NC(=O)[C@H](C(C)C)NC(=O)[C@H](CC2CCCCC2)NC(=O)[C@H](CCN)NC(=O)[C@H](Cc2ccccc2)N(C)C(=O)[C@H](CCCN)NC(=O)[C@H](CCC(=O)O)NC(=O)[C@H](Cc2ccc(-c3ccccc3)cc2)NC1=O [Example 1438] ({CH2CO}-[4Pal][Phe(4-COOH)]DWV[Bip]E[Orn][NMeF][Dab][Cha]VTCA-NH2; thioether N-14) | 70 nM
CC(C)[C@@H]1NC(=O)[C@H](Cc2c[nH]c3ccccc23)NC(=O)[C@H](CC(=O)O)NC(=O)[C@H](Cc2ccncc2)NC(=O)[C@H](CN)NC(=O)CSC[C@@H](C(=O)N[C@@H](C)C(N)=O)NC(=O)[C@H]([C@@H](C)O)NC(=O)[C@H](C(C)C)NC(=O)[C@H](CC2CCCCC2)NC(=O)[C@H](CCN)NC(=O)[C@H](Cc2ccccc2)N(C)C(=O)[C@H](CCCN)NC(=O)[C@H](CCC(=O)O)NC(=O)[C@H](Cc2ccc(-c3ccccc3)cc2)NC1=O [Example 1439] ({CH2CO}-[Dap][4Pal]DWV[Bip]E[Orn][NMeF][Dab][Cha]VTCA-NH2; thioether N-14) | 90 nM
CC(C)C1NC(=O)[C@H](Cc2c[nH]c3ccccc23)NC(=O)[C@H](CC(=O)O)NC(=O)[C@H](Cc2ccncc2)NC(=O)[C@H](Cc2ccc(OCC(=O)O)cc2)NC(=O)CSC[C@@H](C(=O)N[C@@H](C)C(N)=O)NC(=O)[C@H]([C@@H](C)O)NC(=O)[C@H](C(C)C)NC(=O)[C@H](CC2CCCCC2)NC(=O)[C@H](CCN)NC(=O)[C@H](Cc2ccccc2)N(C)C(=O)[C@H](CCCN)NC(=O)[C@H](CCC(=O)O)NC(=O)[C@H](Cc2ccc(-c3ccccc3)cc2)NC1=O (some centres unmarked) [Example 1440] ({CH2CO}-Y(Carboxymethyl)[4Pal]DW[ξV][Bip]E[Orn][NMeF][Dab][Cha]VTCA-NH2; thioether N-14) | 70 nM
CC(C)C1NC(=O)[C@H](Cc2c[nH]c3ccccc23)NC(=O)[C@H](CC(=O)O)NC(=O)[C@H](Cc2ccc(O)cc2)NC(=O)[C@H](CC(N)=O)NC(=O)CSC[C@@H](C(=O)N[C@@H](C)C(N)=O)NC(=O)[C@H]([C@@H](C)O)NC(=O)[C@H](C(C)C)NC(=O)[C@H](CC2CCCCC2)NC(=O)[C@H](CCN)NC(=O)[C@H](Cc2ccccc2)N(C)C(=O)[C@H](CCCN)NC(=O)[C@H](CCC(=O)O)NC(=O)[C@H](Cc2ccc(-c3ccccc3)cc2)NC1=O (some centres unmarked) [Example 1441] ({CH2CO}-NYDW[ξV][Bip]E[Orn][NMeF][Dab][Cha]VTCA-NH2; thioether N-14) | 60 nM
CC(C)C1NC(=O)[C@H](Cc2c[nH]c3ccccc23)NC(=O)[C@H](CC(=O)O)NC(=O)[C@H](Cc2ccc(OCC(=O)O)cc2)NC(=O)[C@H](CN)NC(=O)CSC[C@@H](C(=O)N[C@@H](C)C(N)=O)NC(=O)[C@H]([C@@H](C)O)NC(=O)[C@H](C(C)C)NC(=O)[C@H](CC2CCCCC2)NC(=O)[C@H](CCN)NC(=O)[C@H](Cc2ccccc2)N(C)C(=O)[C@H](CCCN)NC(=O)[C@H](CCC(=O)O)NC(=O)[C@H](Cc2ccc(-c3ccccc3)cc2)NC1=O (some centres unmarked) [Example 1442] ({CH2CO}-[Dap]Y(Carboxymethyl)DW[ξV][Bip]E[Orn][NMeF][Dab][Cha]VTCA-NH2; thioether N-14) | 70 nM
CC(C)C1NC(=O)[C@H](Cc2c[nH]c3ccccc23)NC(=O)[C@H](CC(=O)O)NC(=O)[C@H](Cc2ccc(C(=O)O)cc2)NC(=O)[C@H](Cc2ccc(OCC(=O)O)cc2)NC(=O)CSC[C@@H](C(=O)N[C@@H](C)C(N)=O)NC(=O)[C@H]([C@@H](C)O)NC(=O)[C@H](C(C)C)NC(=O)[C@H](CC2CCCCC2)NC(=O)[C@H](CCN)NC(=O)[C@H](Cc2ccccc2)N(C)C(=O)[C@H](CCCN)NC(=O)[C@H](CCC(=O)O)NC(=O)[C@H](Cc2ccc(-c3ccccc3)cc2)NC1=O (some centres unmarked) [Example 1443] ({CH2CO}-Y(Carboxymethyl)[Phe(4-COOH)]DW[ξV][Bip]E[Orn][NMeF][Dab][Cha]VTCA-NH2; thioether N-14) | 80 nM

The next compounds have a lower IC50 than those just listed; values first:

IC50 | SMILES
50 nM | Cc1cccc(C[C@@H]2NC(=O)[C@H](CC(=O)O)NC(=O)[C@H](Cc3ccc(C(=O)O)cc3)NC(=O)[C@H](Cc3ccncc3)NC(=O)CSC[C@@H](C(=O)N[C@@H](C)C(N)=O)NC(=O)[C@H]([C@@H](C)O)NC(=O)[C@H](C(C)C)NC(=O)[C@H](CC3CCCCC3)NC(=O)[C@H](CCN)NC(=O)[C@H](Cc3ccccc3)N(C)C(=O)[C@H](CCCN)NC(=O)[C@H](CCC(=O)O)NC(=O)[C@H](Cc3ccc(-c4ccccc4)cc3)NC(=O)C(C(C)C)NC2=O)c1 (some centres unmarked) [Example 1444] ({CH2CO}-[4Pal][Phe(4-COOH)]D[Phe(3-Me)][ξV][Bip]E[Orn][NMeF][Dab][Cha]VTCA-NH2; thioether N-14)
10 nM | Cc1cccc(C[C@@H]2NC(=O)[C@H](CC(=O)O)NC(=O)[C@H](Cc3ccncc3)NC(=O)[C@H](CN)NC(=O)CSC[C@@H](C(=O)N[C@@H](C)C(N)=O)NC(=O)[C@H]([C@@H](C)O)NC(=O)[C@H](C(C)C)NC(=O)[C@H](CC3CCCCC3)NC(=O)[C@H](CCN)NC(=O)[C@H](Cc3ccccc3)N(C)C(=O)[C@H](CCCN)NC(=O)[C@H](CCC(=O)O)NC(=O)[C@H](Cc3ccc(-c4ccccc4)cc3)NC(=O)C(C(C)C)NC2=O)c1 (some centres unmarked) [Example 1445] ({CH2CO}-[Dap][4Pal]D[Phe(3-Me)][ξV][Bip]E[Orn][NMeF][Dab][Cha]VTCA-NH2; thioether N-14)
20 nM | Cc1cccc(C[C@@H]2NC(=O)[C@H](CC(=O)O)NC(=O)[C@H](Cc3ccncc3)NC(=O)[C@H](Cc3ccc(OCC(=O)O)cc3)NC(=O)CSC[C@@H](C(=O)N[C@@H](C)C(N)=O)NC(=O)[C@H]([C@@H](C)O)NC(=O)[C@H](C(C)C)NC(=O)[C@H](CC3CCCCC3)NC(=O)[C@H](CCN)NC(=O)[C@H](Cc3ccccc3)N(C)C(=O)[C@H](CCCN)NC(=O)[C@H](CCC(=O)O)NC(=O)[C@H](Cc3ccc(-c4ccccc4)cc3)NC(=O)C(C(C)C)NC2=O)c1 (some centres unmarked) [Example 1446] ({CH2CO}-Y(Carboxymethyl)[4Pal]D[Phe(3-Me)][ξV][Bip]E[Orn][NMeF][Dab][Cha]VTCA-NH2; thioether N-14)
30 nM | Cc1cccc(C[C@@H]2NC(=O)[C@H](CC(=O)O)NC(=O)[C@H](Cc3ccc(O)cc3)NC(=O)[C@H](CC(N)=O)NC(=O)CSC[C@@H](C(=O)N[C@@H](C)C(N)=O)NC(=O)[C@H]([C@@H](C)O)NC(=O)[C@H](C(C)C)NC(=O)[C@H](CC3CCCCC3)NC(=O)[C@H](CCN)NC(=O)[C@H](Cc3ccccc3)N(C)C(=O)[C@H](CCCN)NC(=O)[C@H](CCC(=O)O)NC(=O)[C@H](Cc3ccc(-c4ccccc4)cc3)NC(=O)C(C(C)C)NC2=O)c1 (some centres unmarked) [Example 1447] ({CH2CO}-NYD[Phe(3-Me)][ξV][Bip]E[Orn][NMeF][Dab][Cha]VTCA-NH2; thioether N-14)
30 nM | Cc1cccc(C[C@@H]2NC(=O)[C@H](CC(=O)O)NC(=O)[C@H](Cc3ccc(OCC(=O)O)cc3)NC(=O)[C@H](CN)NC(=O)CSC[C@@H](C(=O)N[C@@H](C)C(N)=O)NC(=O)[C@H]([C@@H](C)O)NC(=O)[C@H](C(C)C)NC(=O)[C@H](CC3CCCCC3)NC(=O)[C@H](CCN)NC(=O)[C@H](Cc3ccccc3)N(C)C(=O)[C@H](CCCN)NC(=O)[C@H](CCC(=O)O)NC(=O)[C@H](Cc3ccc(-c4ccccc4)cc3)NC(=O)C(C(C)C)NC2=O)c1 (some centres unmarked) [Example 1448] ({CH2CO}-[Dap]Y(Carboxymethyl)D[Phe(3-Me)][ξV][Bip]E[Orn][NMeF][Dab][Cha]VTCA-NH2; thioether N-14)
